Assay results: ChEMBL document CHEMBL2390826, “Discovery of potent and efficacious urea-containing nicotinamide phosphoribosyltransferase (NAMPT) inhibitors with reduced CYP2C9 inhibition properties” (Bioorg Med Chem Lett, 2013)
≈ marks a conversion by molar mass, not a printed value. One block for each molecule: values may come before it.

How the values were obtained:
[1] = Hepatic clearance in human liver microsomes at 1 uM after 20 to 60 mins by LC-MS/MS analysis; assay type: ADME, Microsome
[2] = Hepatic clearance in CD-1 mouse hepatocytes at 1 uM by LC-MS/MS analysis; assay type: ADME, cell-based, Liver, Hepatocyte
[3] = Hepatic clearance in CD-1 mouse liver microsomes at 1 uM after 20 to 60 mins by LC-MS/MS analysis; assay type: ADME, Microsome
[4] = Aqueous solubility of the compound in PBS buffer at 100 uM after 24 hrs by LC/CLND analysis; assay type: physicochemical
[5] = Apparent permeability from apical to basolateral side in MDCK cells at 10 uM by LC-MS/MS analysis; assay type: ADME, cell-based, Canis lupus familiaris; settings: dog
[6] = Cmax in BALB/c mouse at 5 mg/kg, po by LC/MS/MS analysis; assay type: ADME, organism-based; set-up: dose 5 mg/kg, route oral; settings: in vivo
[7] = Tmax in BALB/c mouse at 5 mg/kg, po by LC/MS/MS analysis; assay type: ADME, organism-based; set-up: dose 5 mg/kg, route oral; settings: in vivo
[8] = Half life in BALB/c mouse at 1 mg/kg, iv by LC/MS/MS analysis; assay type: ADME, organism-based; set-up: dose 1 mg/kg, route intravenous; settings: in vivo
[9] = Volume of distribution at steady state in BALB/c mouse at 1 mg/kg, iv by LC/MS/MS analysis; assay type: ADME, organism-based; set-up: dose 1 mg/kg, route intravenous; settings: in vivo, read-out: Vdss
[10] = Oral bioavailability in BALB/c mouse at 5 mg/kg by LC/MS/MS analysis; assay type: ADME, organism-based; settings: in vivo
[11] = Half life in BALB/c mouse at 5 mg/kg, po by LC/MS/MS analysis; assay type: ADME, organism-based; set-up: dose 5 mg/kg, route oral; settings: in vivo
[12] = Clearance in BALB/c mouse at 1 mg/kg, iv by LC/MS/MS analysis; assay type: ADME, organism-based; set-up: dose 1 mg/kg, route intravenous; settings: in vivo

SMILES: O=C(NCc1cccnc1)Nc1ccc(S(=O)(=O)c2ccccc2)cc1
CLhep predicted at 1 µM [1]: 8 mL/min/kg

SMILES: O=C(NCc1cccnc1)Nc1ccc(S(=O)(=O)N2C3CCC2COC3)cc1
CLhep predicted at 1 µM [1]: 8 mL/min/kg

SMILES: O=C(NCc1cccnc1)Nc1ccc(S(=O)(=O)N[C@@H]2CCNC[C@H]2F)cc1
CLhep predicted at 1 µM [1]: 3 mL/min/kg

SMILES: N[C@H]1CC[C@H](NS(=O)(=O)c2ccc(NC(=O)NCc3cccnc3)cc2)CC1
CLhep predicted at 1 µM [1]: 5 mL/min/kg
CLhep predicted at 1 µM [2]: 6.3 mL/min/kg
CLhep predicted at 1 µM [3]: 27 mL/min/kg
solubility at 24 h, 100 µM [4]: 161 µM (≈ 65 µg/mL)
Papp A→B at 10 µM [5]: 0.2 ×10⁻⁶ cm/s

SMILES: O=C(NCc1cccnc1)Nc1ccc(S(=O)(=O)N[C@H]2CC[C@H](O)CC2)cc1
CLhep predicted at 1 µM [1]: 2 mL/min/kg

SMILES: O=C(NCc1cccnc1)Nc1ccc(S(=O)(=O)N[C@H]2CCC[C@H](O)C2)cc1
CLhep predicted at 1 µM [1]: 4 mL/min/kg
CLhep predicted at 1 µM [2]: 19 mL/min/kg
CLhep predicted at 1 µM [3]: 61 mL/min/kg
solubility at 24 h, 100 µM [4]: 136 µM (≈ 55 µg/mL)
Papp A→B at 10 µM [5]: 0.1 ×10⁻⁶ cm/s

SMILES: COc1ccc(CNC(=O)Nc2ccc(S(=O)(=O)c3ccccc3)cc2)cn1
CLhep predicted at 1 µM [1]: 12 mL/min/kg

SMILES: O=C(NCc1ccc(Cl)nc1)Nc1ccc(S(=O)(=O)c2ccccc2)cc1
CLhep predicted at 1 µM [1]: 6 mL/min/kg

SMILES: Nc1ccc(CNC(=O)Nc2ccc(S(=O)(=O)c3ccccc3)cc2)cn1
CLhep predicted at 1 µM [1]: 5 mL/min/kg
Cmax [6]: 2900 nM
Tmax [7]: 0.83 h
half-life [8]: 2.6 h
Vd [9]: 0.51 L/kg
bioavailability [10]: 31%
CLhep predicted at 1 µM [2]: 12 mL/min/kg
CLhep predicted at 1 µM [3]: 42 mL/min/kg
half-life [11]: 2.7 h
solubility at 24 h, 100 µM [4]: 109 µM (≈ 41.7 µg/mL)
Papp A→B at 10 µM [5]: 2.9 ×10⁻⁶ cm/s
clearance [12]: 4.9 mL/min/kg

SMILES: O=C(NCc1cncc(F)c1)Nc1ccc(S(=O)(=O)c2ccccc2)cc1
CLhep predicted at 1 µM [1]: 8 mL/min/kg

SMILES: O=C(NCc1cccnn1)Nc1ccc(S(=O)(=O)c2ccccc2)cc1
CLhep predicted at 1 µM [1]: 3 mL/min/kg

SMILES: O=C(NCc1cnccn1)Nc1ccc(S(=O)(=O)c2ccccc2)cc1
CLhep predicted at 1 µM [1]: 5 mL/min/kg

SMILES: O=C(NCc1cncnc1)Nc1ccc(S(=O)(=O)c2ccccc2)cc1
CLhep predicted at 1 µM [1]: 6 mL/min/kg

SMILES: Nc1ncc(CNC(=O)Nc2ccc(S(=O)(=O)c3ccccc3)cc2)cn1
CLhep predicted at 1 µM [1]: 3 mL/min/kg

Next, values leading:

CLhep predicted at 1 µM [1]: 6 mL/min/kg
SMILES: O=C(NCc1cccnc1)Nc1ccc(S(=O)(=O)N2CCOCC2)cc1

CLhep predicted at 1 µM [1]: 3 mL/min/kg
SMILES: O=C(NCc1cccnc1)Nc1ccc(S(=O)(=O)N2C[C@@H]3C[C@H]2CO3)cc1

CLhep predicted at 1 µM [1]: 8 mL/min/kg
SMILES: O=C(NCc1cccnc1)Nc1ccc(S(=O)(=O)N2CCC23COC3)cc1

CLhep predicted at 1 µM [1]: 7 mL/min/kg
SMILES: O=C(NCc1cccnc1)Nc1ccc(S(=O)(=O)N2CC3(COC3)C2)cc1

CLhep predicted at 1 µM [1]: 7 mL/min/kg
SMILES: O=C(NCc1cccnc1)Nc1ccc(S(=O)(=O)N2CCC3(CCCN3)CC2)cc1

CLhep predicted at 1 µM [1]: 4 mL/min/kg
CLhep predicted at 1 µM [2]: 9.2 mL/min/kg
CLhep predicted at 1 µM [3]: 44 mL/min/kg
solubility at 24 h, 100 µM [4]: 75 µM (≈ 32.2 µg/mL)
Papp A→B at 10 µM [5]: 0.07 ×10⁻⁶ cm/s
SMILES: O=C(NCc1cccnc1)Nc1ccc(S(=O)(=O)N2CCC3(CCNC3)CC2)cc1

CLhep predicted at 1 µM [1]: 2 mL/min/kg
SMILES: O=C(NCc1cccnc1)Nc1ccc(S(=O)(=O)N2CCC3(CCNCC3)C2)cc1

CLhep predicted at 1 µM [1]: 6 mL/min/kg
SMILES: O=C(NCc1cccnc1)Nc1ccc(S(=O)(=O)N2CCCNCC2)cc1

CLhep predicted at 1 µM [1]: 6 mL/min/kg
SMILES: CCN1CC[C@@H](NS(=O)(=O)c2ccc(NC(=O)NCc3cccnc3)cc2)[C@@H](F)C1

CLhep predicted at 1 µM [1]: 17 mL/min/kg
CLhep predicted at 1 µM [2]: 55 mL/min/kg
CLhep predicted at 1 µM [3]: 81 mL/min/kg
solubility at 24 h, 100 µM [4]: 112 µM (≈ 45.3 µg/mL)
Papp A→B at 10 µM [5]: 3.1 ×10⁻⁶ cm/s
SMILES: C[C@@H]1CN(S(=O)(=O)c2ccc(NC(=O)NCc3cccnc3)cc2)C[C@H](C)O1

CLhep predicted at 1 µM [1]: 8 mL/min/kg
CLhep predicted at 1 µM [2]: 16 mL/min/kg
CLhep predicted at 1 µM [3]: 48 mL/min/kg
solubility at 24 h, 100 µM [4]: 107 µM (≈ 43.2 µg/mL)
Papp A→B at 10 µM [5]: 0.1 ×10⁻⁶ cm/s
SMILES: CC1CNCCN(S(=O)(=O)c2ccc(NC(=O)NCc3cccnc3)cc2)C1 (racemic)

CLhep predicted at 1 µM [1]: 5 mL/min/kg
SMILES: CC1CCN(S(=O)(=O)c2ccc(NC(=O)NCc3cccnc3)cc2)CCN1 (racemic)

CLhep predicted at 1 µM [1]: 18 mL/min/kg
SMILES: O=C(NCc1cccnc1)Nc1ccc(S(=O)(=O)N2CCNC(C(F)(F)F)CC2)cc1 (racemic)

CLhep predicted at 1 µM [1]: 17 mL/min/kg
SMILES: C[C@@H]1COC[C@@H](C)N1S(=O)(=O)c1ccc(NC(=O)NCc2cccnc2)cc1 (racemic)
